Laboratory results from the NIST ThermoML archive (doi:10.1016/j.jct.2015.12.025).

Test: xn = mol fraction of the nth substance listed
Details: 102 kPa, Liquid, Vibrating tube method

C[Si]1(CCC(F)(F)F)O[Si](C)(CCC(F)(F)F)O[Si](C)(CCC(F)(F)F)O1 (stereo not given) + O=[N+]([O-])c1ccccc1
mass density [kg/m3]
Details | 308.15 K | 313.15 K | 318.15 K | 323.15 K
x1 = 0.05 | 1199.58 | 1194.53 | 1189.25 | 1184.09
x1 = 0.0999 | 1207.93 | 1202.66 | 1197.26 | 1191.9
x1 = 0.1499 | 1214.25 | 1208.83 | 1203.23 | 1197.73
x1 = 0.1919 | 1218.36 | 1212.79 | 1207.17 | 1201.58
x1 = 0.2499 | 1222.85 | 1217.11 | 1211.37 | 1205.62
x1 = 0.2999 | 1225.81 | 1220.01 | 1214.12 | 1208.26
x1 = 0.3501 | 1228.12 | 1222.19 | 1216.28 | 1210.32
x1 = 0.3999 | 1229.99 | 1224 | 1218.01 | 1211.97
x1 = 0.4499 | 1231.5 | 1225.36 | 1219.29 | 1213.19
x1 = 0.5008 | 1232.67 | 1226.56 | 1220.4 | 1214.21
x1 = 0.55 | 1233.65 | 1227.39 | 1221.21 | 1215
x1 = 0.6001 | 1234.37 | 1228.07 | 1221.84 | 1215.54
x1 = 0.6501 | 1234.9 | 1228.58 | 1222.33 | 1216
x1 = 0.6997 | 1235.32 | 1229.04 | 1222.69 | 1216.31
x1 = 0.75 | 1235.76 | 1229.34 | 1222.98 | 1216.56
x1 = 0.8002 | 1236.01 | 1229.55 | 1223.17 | 1216.72
x1 = 0.8498 | 1236.19 | 1229.72 | 1223.28 | 1216.78
x1 = 0.9002 | 1236.26 | 1229.82 | 1223.34 | 1216.83
x1 = 0.9492 | 1236.47 | 1229.88 | 1223.44 | 1216.88
x1 = 1 | 1236.63 | 1230.05 | 1223.55 | 1216.99
